In the case of `CC(=O)CCC(C)=O`, the log10 OH rate constant (cm³/molecule/s) (25.0 °C) was -11.1.

Turning to `Cc1cccc(O)c1`, the log10 OH rate constant (cm³/molecule/s) (25.0 °C) is -10.2.

For the compound `CCCCCC`, the log10 OH rate constant (cm³/molecule/s) (25.0 °C) is -11.3.

The compound `c1c[nH]cn1` displayed a log10 OH rate constant (cm³/molecule/s) (24.0 °C) of -10.4.

`CS`: the log10 OH rate constant (cm³/molecule/s) (25.0 °C) was -10.5.

`Cc1ccc(C)cc1` came in with a log10 OH rate constant (cm³/molecule/s) (25.0 °C) of -10.8.

In turn, `FC(F)(Cl)Cl` returned a log10 OH rate constant (cm³/molecule/s) (25.0 °C) of less than -15.4.

In turn, `CCC(=O)O` came in with a log10 OH rate constant (cm³/molecule/s) (25.0 °C) of -11.9.

Under “25.0 °C”, `OCc1ccccc1` showed a log10 OH rate constant (cm³/molecule/s) of -10.6.

For `CC(C)=CC=C(C)C`, the log10 OH rate constant (cm³/molecule/s) (25.0 °C) was -9.68.

In turn, `c1ccsc1` registered a log10 OH rate constant (cm³/molecule/s) (25.0 °C) of -11.

With `FC(F)(F)CCl`, the log10 OH rate constant (cm³/molecule/s) (25.0 °C) was -13.8.

Compound `CCCCOCCO` returned a log10 OH rate constant (cm³/molecule/s) (25.0 °C) of -10.7.

As to `c1ncncn1`, the log10 OH rate constant (cm³/molecule/s) (23.0 °C) is -12.8.

Consider `C1COC1`, for which the log10 OH rate constant (cm³/molecule/s) (25.0 °C) was -11.

`C=CC(=C)C` registered a log10 OH rate constant (cm³/molecule/s) (25.0 °C) of -10.

Regarding `C=CBr`, under “25.0 °C”, the log10 OH rate constant (cm³/molecule/s) is -11.2.

For `Cc1cccc(C)c1C`, under “25.0 °C”, the log10 OH rate constant (cm³/molecule/s) was -10.5.

For `CCCCCCCC(C)=O`, the log10 OH rate constant (cm³/molecule/s) (25.0 °C) is -10.9.

`COc1ccccc1` yielded a log10 OH rate constant (cm³/molecule/s) (25.0 °C) of -10.8.

For `CC(C)CC(C)C`, the log10 OH rate constant (cm³/molecule/s) (25.0 °C) was -11.3.

In the case of `C=CC(C)=CC`, the log10 OH rate constant (cm³/molecule/s) (25.0 °C) is -9.87.

As to `CC(C)(C)S`, where the note is “25.0 °C”, the log10 OH rate constant (cm³/molecule/s) was -10.5.

Under “25.0 °C”, `ClC(Cl)(Cl)Cl` yielded a log10 OH rate constant (cm³/molecule/s) of less than -15.9.

With `CCCCCCC(C)C`, the log10 OH rate constant (cm³/molecule/s) (25.0 °C) is -11.

With `C=CCC=C`, the log10 OH rate constant (cm³/molecule/s) (25.0 °C) is -10.3.

For `FCF`, the log10 OH rate constant (cm³/molecule/s) (25.0 °C) was -14.

These data come from the OPERA property sets (Mansouri et al. 2018).
